In general, kcat refers to the maximal rate divided by the concentration of active sites. Usually Km stands for the concentration of substrate that gives half-maximal velocity.

“And” between values parts separate entries of the source, which are not always exact repeats. Equal entries are not always repeated. “Also recorded” adds a separate entry of the source. Non-standard residues stand in square brackets, D forms with d. *: point of attachment. Oic = O=C(O)[C@@H]1C[C@@H]2CCCC[C@@H]2N1; ACC = NC(=O)Cc1cc(=O)oc2cc(N*)ccc12; Tic = O=C(O)[C@@H]1Cc2ccccc2CN1

The values below come from PMC7590976, “Detection of Active Granzyme A in NK92 Cells with Fluorescent Activity-Based Probe” (Journal of Medicinal Chemistry, 2020).

One test deals with granzyme M (GrM). The test can be described thus: Selectivity of SK15 substrate toward GrM. The class given is biochemical, human. The note with it: Figure S2: substrate 67 µM, 74 nM GrM. From the text:
(§1) Since GrA and GrK are the most structurally similar Grs, they may recognize and hydrolyze the same natural and synthetic substrates. Therefore, we tested whether our new GrA substrates are also recognized by GrK or GrB (Figure 3A). For this experiment, we screened substrates SK8 to SK28 and a GrKref substrate (Ac-Tyr-Arg-Phe-Lys-ACC) or GrBref substrate (Ac-Ile-Glu-Pro-Asp-ACC) at the same concentration using a plate reader, and we monitored the increase in fluorescence over time. The linear portions of the diagram were analyzed, and as we expected, the majority of the substrates were well recognized by GrK, even better than their recognition by GrA. […] Based on that, we concluded that Tic-Gly-Oic-Arg is a leading sequence for a specific potent inhibitor and ABP for GrA.
(§2) Figure S2. Selectivity of SK15 substrate toward selected serine proteases (GrA, GrB, GrM, GrK,
(§3) PR3, and hNE). The reference substrates were as follows: Ac-Ile-Gly-Pro-Arg-ACC for GrA, Ac -Tyr-
(§4) Arg-Phe-Lys-ACC for GrK, Ac-Ile-Glu-Pro-Asp-ACC for GrB, Ac-Lys-Val-Pro-Leu-ACC for GrM,
(§5) Ac-Glu(O-Bzl)-Lys(Ac)-Hyp(Bzl)-Nva-ACC for PR3 and Ac-Arg(NO)2-Glu(Bzl)-Oic-Abu-ACC for hNE.
(§6) Substrates were placed in a 96-well plate at a concentration of 67 µM and treated with optimal
(§7) and emission wavelengths. Data present the average of 2 replicates as adjusted RFU/s.
(§8) Figure S3. Detection of active GrA in NK92 cells. […]

The target of test [1] is T1, GrA (Homo sapiens, UniProt P12544).
T1 construct: made in house; host or cells: Pichia pastoris
T1 sequence (P12544 29-262): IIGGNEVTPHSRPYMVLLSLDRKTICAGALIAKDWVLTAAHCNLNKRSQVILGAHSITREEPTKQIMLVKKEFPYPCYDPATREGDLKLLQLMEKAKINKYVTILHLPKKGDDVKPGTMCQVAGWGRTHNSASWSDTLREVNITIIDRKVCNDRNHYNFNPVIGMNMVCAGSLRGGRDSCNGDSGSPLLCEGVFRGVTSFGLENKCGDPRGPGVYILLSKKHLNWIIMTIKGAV
The test can be described thus: Steady-state Michaelis–Menten kinetics of fluorogenic ACC substrates with GrA. Type of test: biochemical. From the text:
All chemical and biological reagents were purchased from commercial suppliers and used without further purification. The following reagents for solid phase peptide synthesis, Rink Amide RA resin (particle size 200–300 mesh, loading 0.74 mmol/g), 2-chlorotrityl chloride resin, Fmoc-protected amino acids, biotin, 1-[bis(dimethylamino)methylene]-1H-1,2,3-triazolo[4,5-b] pyridinium 3-oxid hexafluorophosphate (HATU), piperidine, diisopropylcarbodiimide (DICI), and trifluoroacetic acid (TFA), were purchased from Iris Biotech GmbH (Marktredwitz, Germany); anhydrous N-hydroxybenzotriazole (HOBt, purity >98%) was purchased from Creosauls; 2,4,6-collidine (2,4,6-trimethylpyridine), HPLC pure acetonitrile, and triisopropylsilane (TIPS) were purchased from Sigma-Aldrich (Poznan, Poland); and N,N-diisopropylethylamie (DIPEA) was purchased from VWR International (Gdansk, Poland). Solvents such as N,N-dimethylformamide (DMF), dichloromethane (DCM), methanol (MeOH), diethyl ether (Et2O), and acetic acid (AcOH) were purchased from Avantor (Gliwice, Poland). Cy5 was purchased from Lumiprobe GmbH (Hannover, Germany). Human neutrophil elastase was purchased from BioCentrum (Kraków, Poland) and proteinase 3 from Athens Research Technology (Athens, USA). Anti-GrA antibody (rabbit, monoclonal, ab209205) was obtained from Abcam (Cambridge, Great Britain). All cell lines were purchased from DSMZ (Braunschweig, Germany) or ATCC (Manassas, USA). All kinetic assays were performed using a Spectra Max Gemini XPS spectrofluorometer (Molecular Devices) on 96-well Corning plates. The parameters of the process were as follows: 37 °C; excitation/emission wavelength, 355/460 nm; cutoff, 455 nm; varying concentrations of substrates and enzyme. All measurements were performed in duplicate, and the data represent the average of these repetitions

The next test deals with proteinase 3 (PR3). Briefly: Selectivity of SK15 substrate toward PR3. The note with it: Figure S2: substrate 67 µM, 3.4 nM PR3. Type of test: biochemical.
Source text: as §1, §2, §3, §4, §5, §6, §7, §8

Test [2] deals with human neutrophil elastase (hNE). The test can be described thus: Selectivity of SK15 substrate toward hNE. Type of test: biochemical. The note with it: Figure S2: substrate 67 µM, 3.3 nM hNE.
Source text: as §1, §2, §3, §4, §5, §6, §7, §8

The test system of test [3] is GrA. The test can be described thus: Screening of individual substrates SK7–SK28 with GrA. Type of test: biochemical, human. The note with it: Figure 2A: substrate 1 μM, 89 nM enzyme (method b64: 67 μM, 583 nM GrA); adjusted RFU/s, average of 2 replicates. From the text: Data present the average of 2 replicates as adjusted RFU/s. (B) Comparison of SK7 (blue) and SK15 (red) structures.

For another test, the target named is T2, GrK (Homo sapiens, UniProt P49863).
T2 construct: made in house; host or cells: Pichia pastoris
T2 sequence (P49863 27-264): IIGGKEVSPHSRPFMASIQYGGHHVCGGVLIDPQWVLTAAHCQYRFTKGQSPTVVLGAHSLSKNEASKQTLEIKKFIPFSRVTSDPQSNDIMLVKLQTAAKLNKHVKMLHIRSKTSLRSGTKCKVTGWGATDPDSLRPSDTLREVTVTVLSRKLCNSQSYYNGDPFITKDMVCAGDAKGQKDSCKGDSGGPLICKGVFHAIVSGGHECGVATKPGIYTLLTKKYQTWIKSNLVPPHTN
The test can be described thus: GrA substrate selectivity testing on GrK. The class given is biochemical. To be noted: 488 nM GrK.
Source text: as §1
(§9) Figure 3 (A) GrA substrate selectivity testing on GrK and GrB. Substrates SK8–SK28 and the reference GrK and GrB substrates were placed in a 96-well plate at a concentration of 200 μM and treated with GrK or GrB. […] Data present the average of 2 replicates as adjusted RFU/s.
as §2, §3
Arg-Phe-Lys-ACC for GrK, Ac-Ile-Glu-Pro-Asp-ACC for GrB, Ac-Lys-Val-Pro-Leu-ACC for GrM, […]

A further test deals with T3, GrB (Homo sapiens, UniProt P10144).
T3 construct: made in house; host or cells: Pichia pastoris
Briefly: GrA substrate selectivity testing on GrB. The class given is biochemical. To be noted: substrate 200 μM (Fig 3A) or 67 μM, 18 nM GrB.
Source text: as §1, §9, §2, §3, §4, §5, §6, §7
Figure S3. Detection of active GrA in NK92 cells.
(also on this page, place not known: S K15 hNE) . Ac-Tyr- -Arg(NO)2-Glu(Bzl)-Oic-Abu-ACC ( 89 G rA cell s. reference reference SK15 reference SK15 reference SK15 reference SK15 reference SK15 0 50 100 substrate turnover, %RFU/s PR3GrMGrBGrK hNEGrA SK15 selectivity) […]

Setting [4] is: GrA 93 nM, assay buffer pH 7.5, 37 °C, ACC fluorescence 355/460 nm.

T3 sequence (P10144 21-247): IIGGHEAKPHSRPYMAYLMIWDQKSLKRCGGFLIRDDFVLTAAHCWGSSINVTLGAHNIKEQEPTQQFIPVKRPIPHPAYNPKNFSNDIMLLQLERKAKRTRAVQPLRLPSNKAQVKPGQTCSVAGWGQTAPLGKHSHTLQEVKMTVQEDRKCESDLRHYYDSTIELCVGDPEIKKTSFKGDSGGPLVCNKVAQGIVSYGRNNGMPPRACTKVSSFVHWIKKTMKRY

Consider “Ac-[Tic]G[Oic]R-{ACC} (SMILES CC(=O)N1Cc2ccccc2C[C@H]1C(=O)NCC(=O)N1[C@H](C(=O)N[C@@H](CCCNC(=N)N)C(=O)Nc2ccc3c(CC(N)=O)cc(=O)oc3c2)C[C@@H]2CCCC[C@@H]21) [SK15]”, for which the “recognition by GrM (in words)” value with granzyme M (GrM) is listed as “not recognized”. For the same substance, at GrA [1] (setting [4]), the kcat is 0.27 ± 0.0029 s⁻¹; the kcat/KM was 3100 M^–1 s^–1 and 3100 ± 80 s^–1 M^–1. The Km on GrA [1] (GrA 93 nM, substrate 1000–7.81 μM, 50 mM Tris, 100 mM NaCl, 5 mM CaCl2, 0.01% Tween-20, pH 7.5, 37 °C, ACC fluorescence 355/460 nm, Michaelis–Menten nonlinear regression, duplicate) was determined as 87.4 ± 1.3 µM. In addition, on GrA [1] (ratio to SK7), the “GrA activity against the substrate relative to the reference sequence SK7” value was “approximately 40 fold”. Further, the “recognition by PR3 (in words)” value in the test on proteinase 3 (PR3) was “not recognized”. In addition, the “recognition by hNE (in words)” value in test [2] is “not recognized”. The “hydrolysis of individual substrate by GrA (in words)” value in the test with GrA [3] is reported as “most active substrate”. Further, the “hydrolysis by GrK” value at GrK (Figure 3A and S2, substrate 200 μM (Fig 3A) or 67 μM (Fig S2), adjusted RFU/s, 2 replicates) worked out at 20%. Further, the “hydrolysis by GrK (in words)” value at GrK (substrate 200 μM (Fig 3A) or 67 μM) is reported as “barely hydrolyzed”. Moreover, the “hydrolysis by GrB (in words)” value on GrB is “inactive; also recorded: not recognized”.
